For one assay, the target named is T1, human GPR119 (Homo sapiens, UniProt Q8TDV5).
T1 construct: expressed in transfected cells
T1 sequence (Q8TDV5 1-335): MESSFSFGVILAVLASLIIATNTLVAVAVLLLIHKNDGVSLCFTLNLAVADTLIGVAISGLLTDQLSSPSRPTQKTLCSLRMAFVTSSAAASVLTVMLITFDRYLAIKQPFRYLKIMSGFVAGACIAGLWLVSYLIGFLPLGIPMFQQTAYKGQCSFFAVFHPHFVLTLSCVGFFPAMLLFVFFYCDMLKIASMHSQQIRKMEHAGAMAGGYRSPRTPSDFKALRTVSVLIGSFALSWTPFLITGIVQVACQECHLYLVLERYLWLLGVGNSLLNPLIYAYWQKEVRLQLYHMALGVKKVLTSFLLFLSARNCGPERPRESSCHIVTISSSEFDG
In words: Intracellular cAMP increase in human GPR119 introduced cells (HitHunter cAMP XS+ Assay). The assay is classed as cell-based. Particulars: Table 17; method similar to Example 86; hGPR119 stable cells, intracellular cAMP. The text has this:
The GPR119 agonist effect was studied by measuring the effect of an analyte on increase of intracellular amount of cAMP in human GPR119 introduced cells. The testing method is described below.
(1) Construction of the Stable Cell Line Expressing Human G Protein-Coupled-Receptor 119 (hGPR119) Human GPR119 gene (NM 178471) is purchased from American Type Culture Collection (ATCC No. 10807349). Hind III site-added forward side primer ([…]: sequence No. 1) and Apa I site-added reverse side primer ([…]: sequence No. 2) are designed. The target gene is amplyfied by a polymerase chain reaction (PCR) method using KOD-Plus-Ver. 2 (TOYOBO #KOD-211). PCR is conducted by repeating three steps consisting of the step of 98° C.-10 seconds, the step of 55° C.-30 seconds, and the step of 68° C.-1 minute and 10 seconds in 35 cycles. The amplified PCR product is inserted into pcDNA5/FRT/TO (Invitrogen #V6520-20) plasmid. Cells, which can constantly express the target gene with tetracycline, are constructed using Flp-In T-REx-systen (invitorogen).
(2) Measurement of Intracellular Cyclic Adenosine Monophosphate (cAMP)
The hGPR119 introduced cells prepared in (1) are plated on a 96-well plate using Dulbecco's Modified Eagle Medium containing heat-inactived 10% fetal bovine serum. After incubation of 24 hours, tetracyclin (invitrogen #Q10019) is added to the culture medium to induce hGPR119 gene expression. After further incubation of 24 hours, the cells are stimulated with 0.5 mM 3-ISOBUTYL-1-METHYLXANTHINE (Sigma #17018) phosphate buffer containing the analyte at 37° C. for 30 minutes. The amount of the intracellular cAMP is measured by using FLUOstar Optima (BMG LABTECH) according to the protocol of HitHunter™ cAMP XS+Assay (GE Healthcare #90007503) to give the agonist activity of the analyte to the GPR119 receptor.
(1) Construction of the Stable Cell Line Expressing Human G-Protein Coupled Receptor 119 (hGPR119) hGPR119 gene (NM 178471) was purchased from American Type Culture Collection (ATCC No. 10807349). The forward primer that was added a HindIII site ([…] (sequence number 1)), and the reverse primer that was added an ApaI site ([…] (sequence number 2)) were designed, the target gene was amplified by polymerase chain reaction (PCR) using a KOD-Plus-Ver.2 (TOYOBO #KOD-211). PCR was repeated 3 steps (98° C. for 10 sec, 55° C. for 30 sec, 68° C. for 1 min 15 sec) by 35 cycles. Amplified PCR product was inserted in pcDNA5/FRT/TO (Invitrogen #V6520-20), and the stable cell line that expresses target gene when induced with tetracycline was created using the Flp-In T-Rex system (Invitrogen).
(2) Measuring Method of Intracellular Cyclic Adenosine Monophosphate (cAMP) hGPR119 stable cells made by above-mentioned (1) were plated on 96 well plates in Dulbecco's Modified Eagle Medium containing 10% heat-inactivated FBS. After 24 hours, the hGPR119 expression was induced by adding medium containing tetracycline (Invitrogen #Q10019) and incubating for another 24 hours. Following incubation, cells were stimulated by 0.5 mM 3-ISOBUTYL-1-METHYLXANTHINE (Sigma #17018) phosphate buffered saline containing test compound for 30 minutes at 37° C. Agonist activity of test compound to the GPR119 receptor was estimated by measuring the intracellular cAMP concentration using a Fluostar optima plate reader (BMG LABTECH) according to the manufacturer's protocol of the HitHunter™ cAMP XS+Assay (GE Healthcare #90007503).
The examination was performed by the method similar to Example 86 (Pharmacological experiment 1)-(1), -(2).
Consider `CC(C)(C)OC(=O)N1CCC(c2ccc(COc3ccc(S(C)(=O)=O)cc3Cl)nc2)CC1` [Example 25, tert-Butyl 4-[2-(2-chloro-4-methanesulfonylphenoxymethyl)pyridin-5-yl]piperidine-1-carboxylate], for which the half-maximal effective concentration (EC50) (in general, the concentration that produces a half-maximal response) amounted to 21.2 nM.
Consider `CCc1cnc(N2CCC(c3ccc(COc4ccc(-n5cnnn5)cc4)nc3)CC2)nc1` [Example 51, 5-Ethyl-2-[4-[2-[4-(tetrazol-1-yl)phenoxymethyl]pyridin-5-yl]piperidin-1-yl]pyrimidine], for which the midpoint of the response, the EC50, lay at 257 nM.
On the same count and under the same terms, under `CC(C)(C)OC(=O)N1CCC(c2ccc(COc3ccc(S(C)(=O)=O)c(F)c3)nc2)CC1` [Example 18, tert-Butyl 4-[2-(3-fluoro-4-methanesulfonylphenoxymethyl)pyridin-5-yl]piperidine-1-carboxylate] stands 85.4 nM; under `Cc1cc(S(C)(=O)=O)ccc1OCc1ccc(C2CCN(C(=O)OC(C)(C)C)CC2)cn1` [Example 22, tert-Butyl 4-[2-(4-methanesulfonyl-2-methylphenoxymethyl)pyridin-5-yl]piperidine-1-carboxylate], 24 nM.
On the same count and under the same terms, under `CC(C)(C)OC(=O)N1CCC(c2ccc(COc3ccc(-n4cnnn4)cc3F)nc2)CC1` [Example 37, tert-Butyl 4-[2-[2-fluoro-4-(tetrazol-1-yl)phenoxymethyl]pyridin-5-yl]piperidine-1-carboxylate] stands 80.6 nM; under `CC(C)(C)OC(=O)N1CCC(c2ccc(COc3ccc(S(C)(=O)=O)cc3F)nc2)CC1` [Example 12, tert-Butyl 4-[2-(2-fluoro-4-methanesulfonylphenoxymethyl)pyridin-5-yl]piperidine-1-carboxylate], 54.7 nM.
On the same count and under the same terms, under `CC(C)(C)OC(=O)N1CCC(c2ccc(CCc3ccc(S(C)(=O)=O)cc3)nc2)CC1` [Example 79, tert-Butyl 4-[2-[2-(4-methanesulfonylphenyl)ethyl]pyridin-5-yl]piperidine-1-carboxylate] stands 142 nM; under `CC(C)(C)OC(=O)N1CCC(c2ccc(COc3ccc(S(N)(=O)=O)cc3)nc2)CC1` [Example 21, tert-Butyl 4-[2-(4-sulfamoylphenoxymethyl)pyridin-5-yl]piperidine-1-carboxylate], 59.3 nM.
`Cc1cc(C2CCN(C(=O)OC(C)(C)C)CC2)cnc1COc1ccc(-n2cnnn2)cc1F` [Example 83, tert-Butyl 4-[2-[2-fluoro-4-(tetrazol-1-yl)phenoxymethyl]-3-methylpyridin-5-yl]piperidine-1-carboxylate] had a concentration giving a half-maximal response (EC50) of 21.9 nM.
Same read-out and setting: under `CC(C)(C)OC(=O)N1CCC(c2ccc(CSc3ccc(S(C)(=O)=O)cc3)nc2)CC1` [Example 84, tert-Butyl 4-[2-(4-methanesulfonylphenylthiomethyl)pyridin-5-yl]piperidine-1-carboxylate] stands 128 nM; under `CC(C)(C)OC(=O)N1CCC(c2cnc(COc3ccc(S(C)(=O)=O)cc3)c(F)c2)CC1` [Example 75, tert-Butyl 4-[3-fluoro-2-(4-methanesulfonylphenoxymethyl)pyridin-5-yl]piperidine-1-carboxylate], 22.4 nM; under `Cc1cc(C2CCN(C(=O)OC(C)(C)C)CC2)cnc1COc1ccc(S(C)(=O)=O)cc1Br` [Example 81, tert-Butyl 4-[2-(2-bromo-4-methanesulfonylphenoxymethyl)-3-methylpyridin-5-yl]piperidine-1-carboxylate], 39.2 nM.
Same read-out and setting: under `Cc1cc(S(C)(=O)=O)ccc1OCc1ncc(C2CCN(C(=O)OC(C)(C)C)CC2)cc1C` [Example 82, tert-Butyl 4-[2-(4-methanesulfonyl-2-methylphenoxymethyl)-3-methylpyridin-5-yl]piperidine-1-carboxylate] stands 58.8 nM.

Staying with this assay, now noted: hGPR119 introduced cells, cAMP.
On to `CC(C)(C)OC(=O)N1CCC(c2ccc(COc3ccc(S(C)(=O)=O)cc3Cl)nc2)CC1` [Example 25, tert-Butyl 4-[2-(2-chloro-4-methanesulfonylphenoxymethyl)pyridin-5-yl]piperidine-1-carboxylate], for which the “GPR119 agonist effect (in words)” value is listed as “excellent GPR119 agonist effect”.
On to `Cc1cc(C2CCN(C(=O)OC(C)(C)C)CC2)cnc1COc1ccc(-n2cnnn2)cc1F` [Example 83, tert-Butyl 4-[2-[2-fluoro-4-(tetrazol-1-yl)phenoxymethyl]-3-methylpyridin-5-yl]piperidine-1-carboxylate], for which the “GPR119 agonist effect (in words)” value is recorded as “excellent GPR119 agonist effect”.

These data come from US20140018537A1, “GPR119 AGONIST” (NIPPON CHEMIPHAR CO., LTD., priority 2008, published 2014).
